Measurements: ChEMBL document CHEMBL6121021, “Design and Synthesis of Topoisomerases-Histone Deacetylase Dual Targeted Quinoline-Bridged Hydroxamates as Anticancer Agents” (J Med Chem, 2025)
Calls of active or inactive are those of the source. No cut-off for these calls is given here.

Columns and labels:
Histone deacetylase 1 [1] = biological target: T1, Histone deacetylase 1 (Homo sapiens, UniProt Q13547); test: Inhibition of HDAC1 (unknown origin)
[2] = biological target: T2, Protein deacetylase HDAC6 (Homo sapiens, UniProt Q9UBN7); test: Inhibition of HDAC6 (unknown origin)
T2 sequence (Q9UBN7 whole entry): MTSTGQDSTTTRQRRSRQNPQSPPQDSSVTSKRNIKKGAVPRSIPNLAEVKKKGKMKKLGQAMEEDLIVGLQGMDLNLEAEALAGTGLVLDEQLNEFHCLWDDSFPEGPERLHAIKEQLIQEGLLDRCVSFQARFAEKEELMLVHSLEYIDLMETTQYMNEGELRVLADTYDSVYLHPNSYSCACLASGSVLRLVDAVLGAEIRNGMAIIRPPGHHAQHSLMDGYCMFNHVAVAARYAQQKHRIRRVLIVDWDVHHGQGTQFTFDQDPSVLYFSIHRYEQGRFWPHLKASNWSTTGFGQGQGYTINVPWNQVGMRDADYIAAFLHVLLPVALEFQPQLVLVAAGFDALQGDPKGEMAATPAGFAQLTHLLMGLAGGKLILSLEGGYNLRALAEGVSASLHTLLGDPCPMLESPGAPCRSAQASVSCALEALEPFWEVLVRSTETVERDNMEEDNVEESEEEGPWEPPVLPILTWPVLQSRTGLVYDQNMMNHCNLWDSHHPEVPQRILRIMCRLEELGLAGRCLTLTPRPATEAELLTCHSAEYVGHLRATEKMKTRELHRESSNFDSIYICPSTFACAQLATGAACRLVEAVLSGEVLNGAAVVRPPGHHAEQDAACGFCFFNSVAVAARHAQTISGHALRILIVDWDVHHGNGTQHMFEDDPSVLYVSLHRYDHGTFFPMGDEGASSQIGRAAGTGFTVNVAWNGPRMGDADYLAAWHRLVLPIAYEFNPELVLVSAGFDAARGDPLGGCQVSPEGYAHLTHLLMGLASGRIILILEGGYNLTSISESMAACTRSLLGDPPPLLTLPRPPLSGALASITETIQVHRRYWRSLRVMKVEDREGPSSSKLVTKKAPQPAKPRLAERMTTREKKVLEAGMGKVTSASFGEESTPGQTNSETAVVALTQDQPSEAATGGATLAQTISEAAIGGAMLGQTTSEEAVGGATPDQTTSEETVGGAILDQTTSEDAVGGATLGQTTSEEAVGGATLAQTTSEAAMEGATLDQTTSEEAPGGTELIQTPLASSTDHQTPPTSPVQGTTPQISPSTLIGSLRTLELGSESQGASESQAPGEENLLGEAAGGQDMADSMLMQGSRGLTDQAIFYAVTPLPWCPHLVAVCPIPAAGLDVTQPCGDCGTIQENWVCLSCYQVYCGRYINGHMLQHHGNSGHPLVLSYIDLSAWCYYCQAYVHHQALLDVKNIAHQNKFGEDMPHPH

[3] = biological target: DNA topoisomerase 2-alpha (Homo sapiens, UniProt P11388); test: Inhibition of human Topo II-alpha-mediated decatenation of kDNA at 100 uM incubated for 30 mins
Sequence of DNA topoisomerase 2-alpha (P11388 whole entry): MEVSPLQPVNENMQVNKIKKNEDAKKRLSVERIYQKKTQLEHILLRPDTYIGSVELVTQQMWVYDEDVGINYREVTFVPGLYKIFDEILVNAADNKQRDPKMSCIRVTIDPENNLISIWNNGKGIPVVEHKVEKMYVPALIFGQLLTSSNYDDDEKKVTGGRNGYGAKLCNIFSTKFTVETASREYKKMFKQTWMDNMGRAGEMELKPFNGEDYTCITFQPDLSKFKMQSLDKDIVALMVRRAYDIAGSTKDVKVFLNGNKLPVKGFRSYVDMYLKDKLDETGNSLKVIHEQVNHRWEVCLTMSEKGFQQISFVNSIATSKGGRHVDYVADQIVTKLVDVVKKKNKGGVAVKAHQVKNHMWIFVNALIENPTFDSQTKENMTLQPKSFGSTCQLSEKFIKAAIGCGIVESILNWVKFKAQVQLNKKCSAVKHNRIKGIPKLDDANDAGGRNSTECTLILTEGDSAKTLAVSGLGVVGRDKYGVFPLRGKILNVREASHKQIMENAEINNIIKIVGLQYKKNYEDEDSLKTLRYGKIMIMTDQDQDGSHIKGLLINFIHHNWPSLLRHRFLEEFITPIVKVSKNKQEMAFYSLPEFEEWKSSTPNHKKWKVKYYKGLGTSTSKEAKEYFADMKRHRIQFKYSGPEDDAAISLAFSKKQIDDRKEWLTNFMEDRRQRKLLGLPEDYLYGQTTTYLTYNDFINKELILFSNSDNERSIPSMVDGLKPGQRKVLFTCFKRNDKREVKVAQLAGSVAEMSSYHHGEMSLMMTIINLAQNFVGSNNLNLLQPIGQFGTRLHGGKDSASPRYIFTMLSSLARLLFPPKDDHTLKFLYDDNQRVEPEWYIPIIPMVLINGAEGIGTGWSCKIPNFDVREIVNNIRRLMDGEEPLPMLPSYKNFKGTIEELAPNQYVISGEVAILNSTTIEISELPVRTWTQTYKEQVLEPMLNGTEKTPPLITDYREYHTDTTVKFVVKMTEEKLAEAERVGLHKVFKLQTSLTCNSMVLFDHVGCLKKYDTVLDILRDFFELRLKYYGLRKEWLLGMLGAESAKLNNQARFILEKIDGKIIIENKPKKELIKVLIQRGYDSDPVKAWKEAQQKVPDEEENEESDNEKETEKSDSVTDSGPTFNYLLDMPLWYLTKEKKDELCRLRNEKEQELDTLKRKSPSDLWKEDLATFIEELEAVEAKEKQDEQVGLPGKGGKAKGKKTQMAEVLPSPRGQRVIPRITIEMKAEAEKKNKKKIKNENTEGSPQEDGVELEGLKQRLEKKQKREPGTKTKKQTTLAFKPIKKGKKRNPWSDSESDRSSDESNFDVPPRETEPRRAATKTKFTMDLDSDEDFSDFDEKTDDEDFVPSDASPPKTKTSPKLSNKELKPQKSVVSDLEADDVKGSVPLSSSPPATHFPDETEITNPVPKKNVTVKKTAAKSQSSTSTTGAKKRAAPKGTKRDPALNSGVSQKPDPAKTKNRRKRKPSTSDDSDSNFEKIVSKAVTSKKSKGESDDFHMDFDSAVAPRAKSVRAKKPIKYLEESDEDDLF

Supercoiled DNA = test: Binding affinity to supercoiled DNA (unknown origin) assessed as DNA intercalation measured after 30 mins by gel electrophoresis; format: nucleic-acid assay
Histone deacetylase 1 [4] = biological target: T1, Histone deacetylase 1; test: Inhibition of HDAC1 extracted from human A549 nucleus incubated for 1 hr by fluorometric assay; format: cell-free
[5] = biological target: T2, Protein deacetylase HDAC6; test: Inhibition of HDAC6 (unknown origin) using acetylated-peptide substrate by fluorometric assay
Histone deacetylase 8 = biological target: T3, Histone deacetylase 8 (Homo sapiens, UniProt Q9BY41); test: Inhibition of HDAC8 (unknown origin) by fluorometric assay
T3 sequence (Q9BY41 whole entry): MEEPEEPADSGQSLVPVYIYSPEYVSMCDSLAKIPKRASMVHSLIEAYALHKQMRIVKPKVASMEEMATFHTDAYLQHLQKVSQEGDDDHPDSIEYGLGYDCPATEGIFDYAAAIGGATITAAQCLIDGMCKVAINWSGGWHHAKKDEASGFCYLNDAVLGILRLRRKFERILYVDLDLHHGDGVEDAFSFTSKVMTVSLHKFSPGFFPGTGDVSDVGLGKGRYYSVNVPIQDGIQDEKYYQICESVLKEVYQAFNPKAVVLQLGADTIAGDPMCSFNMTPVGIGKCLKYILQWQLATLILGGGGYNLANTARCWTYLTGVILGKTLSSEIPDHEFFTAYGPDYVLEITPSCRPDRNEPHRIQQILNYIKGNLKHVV

NCI-H1299 = test: cells; format: functional, cell-based; conditions: Homo sapiens, NCI-H1299, 48 h
MDA-MB-231 = test: cells; format: functional, cell-based; conditions: Homo sapiens, MDA-MB-231, 48 h
MCF7 = test: cells; format: functional, cell-based; conditions: Homo sapiens, MCF7, 48 h
HT-29 = test: cells; format: functional, cell-based; conditions: Homo sapiens, HT-29, 48 h
A549 [6] = test: cells; conditions: Homo sapiens, A549, 48 h
[7] = biological target: T4, DNA topoisomerase 1 (Homo sapiens) (UniProt P11387); test: Inhibition of human Topo I-mediated relaxation of supercoiled DNA preincubated for 30 mins followed by proteinase K addition measured after 30 mins by gel electrophoresis; conditions: time 60.0 min
T4 sequence (whole entry): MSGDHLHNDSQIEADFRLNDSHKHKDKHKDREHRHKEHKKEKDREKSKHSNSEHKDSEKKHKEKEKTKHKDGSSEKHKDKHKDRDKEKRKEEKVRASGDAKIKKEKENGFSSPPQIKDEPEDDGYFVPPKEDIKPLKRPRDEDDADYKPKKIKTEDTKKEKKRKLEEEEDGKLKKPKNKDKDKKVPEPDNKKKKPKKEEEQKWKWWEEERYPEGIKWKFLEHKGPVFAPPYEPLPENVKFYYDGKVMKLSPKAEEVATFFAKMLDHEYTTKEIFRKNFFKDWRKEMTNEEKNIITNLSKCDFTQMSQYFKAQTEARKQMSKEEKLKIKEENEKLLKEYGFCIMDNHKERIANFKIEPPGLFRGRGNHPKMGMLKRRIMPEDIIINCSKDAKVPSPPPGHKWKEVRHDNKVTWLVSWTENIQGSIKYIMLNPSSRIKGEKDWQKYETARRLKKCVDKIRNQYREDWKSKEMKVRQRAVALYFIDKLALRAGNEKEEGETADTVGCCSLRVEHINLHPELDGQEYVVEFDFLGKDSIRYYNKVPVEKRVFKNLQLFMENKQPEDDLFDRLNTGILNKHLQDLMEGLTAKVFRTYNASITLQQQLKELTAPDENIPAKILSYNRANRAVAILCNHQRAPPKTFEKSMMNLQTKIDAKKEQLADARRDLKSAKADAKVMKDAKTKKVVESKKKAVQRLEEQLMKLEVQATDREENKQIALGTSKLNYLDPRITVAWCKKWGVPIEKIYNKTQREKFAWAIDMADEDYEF

A549 [8] = test: Anti-cancer activity against human A549 3D cell culture model assessed as inhibition of 3D culture initiation at sub- IC50 incubated for 21 days with replacement of medium containing compound on every seventh day; format: functional, cell-based; conditions: time 21.0 day
A549 [9] = test: Anti-cancer activity against human A549 3D cell culture model at sub- IC50 incubated for 17 days with replacement of medium containing compound on every third day; format: functional, cell-based; conditions: time 17.0 day
A549 [10] = test: Induction of ROS generation in human A549 cells incubated for 48 hrs by DCFH-DA staining based analysis; format: functional, cell-based
A549 [11] = test: Induction of ROS generation in human A549 cells incubated for 48 hrs by Cell Rox red staining based flow cytometry; format: functional
A549 [12] = test: Effect on mitochondrial membrane permeability in human A549 cells assessed as decrease in red to green fluorescence ratio at sub-IC50 incubated for 48 hrs by JC-1 staining based analysis; format: functional, cell-based
A549 [13] = test: Induction of apoptosis in human A549 cells by Annexin-V/PI staining based flow cytometry; format: functional, cell-based
A549 [14] = test: Induction of cell cycle arrest in human A549 cells assessed as accumulation at G1 phase by PI staining based flow cytometry; format: functional
A549 [15] = test: Induction of cell cycle arrest in human A549 cells assessed as accumulation at G2/M phase by PI staining based flow cytometry; format: functional

T1 sequence (Q13547 whole entry): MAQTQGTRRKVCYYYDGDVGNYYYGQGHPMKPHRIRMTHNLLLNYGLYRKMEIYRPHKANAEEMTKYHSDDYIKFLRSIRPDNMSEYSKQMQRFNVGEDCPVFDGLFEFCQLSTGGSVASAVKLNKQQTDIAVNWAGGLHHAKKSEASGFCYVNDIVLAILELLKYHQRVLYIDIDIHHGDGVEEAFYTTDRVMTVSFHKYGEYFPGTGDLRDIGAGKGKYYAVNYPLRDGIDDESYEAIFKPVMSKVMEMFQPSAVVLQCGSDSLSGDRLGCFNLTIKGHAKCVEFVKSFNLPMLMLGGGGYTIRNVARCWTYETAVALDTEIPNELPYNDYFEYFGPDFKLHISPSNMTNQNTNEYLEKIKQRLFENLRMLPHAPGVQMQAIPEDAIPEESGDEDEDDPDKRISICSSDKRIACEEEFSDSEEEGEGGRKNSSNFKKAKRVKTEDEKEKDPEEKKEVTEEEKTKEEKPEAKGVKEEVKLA

Row | Structure (SMILES) | IC50 (Histone deacetylase 1 [1]) | IC50 [2] | inhibition [3] | Activity (Supercoiled DNA) | IC50 (Histone deacetylase 1 [4]) | IC50 [5] | IC50 (Histone deacetylase 8) | IC50 (NCI-H1299) | IC50 (MDA-MB-231) | IC50 (MCF7) | IC50 (HT-29) | IC50 (A549 [6]) | further results
1 | CN1c2ccc(NCc3ccc(-c4noc(CC(=O)NO)n4)cc3)cc2C(O)N2CCc3c([nH]c4ccc(O)cc34)C12 (stereo not drawn) | 0.024 µM | 0.013 µM |  |  |  |  |  |  |  |  |  |  | 
2 | COc1cc(-c2ccc3cc(OCCCCCCC(=O)NO)ccc3n2)cc(OC)c1OC |  |  | Active | inactive | 0.0698 µM | 0.243 µM | > 0.5 µM | 4.81 µM | 5.87 µM | 4.66 µM | 4.97 µM | 3.75 µM | 
3 | O=C(CCCCCCOc1ccc2nc(-c3ccccc3)ccc2c1)NO |  |  | Active; Observed As More Active Than Etoposide | inactive | 0.0474 µM | > 0.5 µM | > 0.5 µM | 4.25 µM | 8.93 µM | 9.38 µM | 8.34 µM | 3.95 µM | 
4 | O=C(CCCCCCOc1ccc(-c2ccc3ccccc3n2)cc1)NO |  |  | Active; Observed As More Active Than Etoposide | inactive | 0.0665 µM | 0.276 µM | > 0.5 µM | 2.46 µM | 3.81 µM | 4.82 µM | 3.45 µM | 0.853 µM | 
5 | O=C(CCCCCn1cc(-c2ccc(Nc3c4ccccc4nc4ccccc34)cc2)nn1)NO | 0.0039 µM | 0.0029 µM |  |  |  |  |  |  |  |  |  |  | 
6 | COc1ccc(-c2ccc3cc(OCCCCCCC(=O)NO)ccc3n2)cc1 |  |  | Active; Observed As More Active Than Etoposide | inactive | 0.028 µM | > 0.5 µM | > 0.5 µM | 2.33 µM | 0.978 µM | 1.44 µM | 3.91 µM | 1.6 µM | inhibition [7]: Active; inhibition (A549 [8]): Active; Activity (A549 [9]): Active; Exhibited Commendable Decrease In Mass Of 3D Sphere; Activity (A549 [10]): Active; Activity (A549 [11]): Active; Activity (A549 [12]): Active; Result Signifies That Cell Death Induced Via Mitochondrial-Dependent Pathways; Activity (A549 [13]): Active; Activity (A549 [14]): Active; Activity (A549 [15]): Active
